Data reported in patent US5877185A, “Synergistic compositions useful as anti-tumor agents” (priority 1995, dated 1999).

System: HIV-1 (MN strain) virions
Experiment: zinc loss from treatment of HIV-1 virions with NOBA
Format: biochemical
Method: Experiments were performed to determine if NOBA is capable of ejecting zinc from intact virions. HIV-1 (MN strain) was produced, purified and concentrated as described in Bess et al., J. Virol. 66:840-847 (1992). The concentrated virus was diluted to 60 times that of culture fluid in TNE buffer (0.01M Tris-HCl, 0.1M NaCl, 1 mM EDTA, pH 7.2) and incubated with 3000 or 6000 μM NOBA at 37° C. The virus was then pelleted and washed with TNE buffer to remove weakly bound zinc. The quantity of zinc in the resulting viral pellets was determined as described in Bess et al., J. Virol. 66:840-847 (1992).

## NC(=O)c1cccc(N=O)c1 [NOBA, 3-nitrosobenzamide]
3,000 μM NOBA, 2 hr
  Zinc Loss: 52%
3,000 μM NOBA, 2 hr, control 0.21
  Zinc, NOBA-Treated Sample: 0.11 µg/mL
6,000 μM NOBA, 4 hr
  Zinc Loss: 83%
6,000 μM NOBA, 4 hr, control 0.24
  Zinc, NOBA-Treated Sample: 0.04 µg/mL
3000 or 6000 μM NOBA
  loss of viral proteins in the pellet: No significant loss
